Data: patent publication US9717745B2, “Pharmaceutical compositions and their use for treatment of cancer and autoimmune diseases” (ZHEJIANG DTRM BIOPHARMA CO. LTD., priority 2015, dated 2017)
Where two headings read alike, the source gives them in different places. Marks after values point to notes of the source that are not given here.

Columns and labels:
[1] = Adjuvant-induced arthritis (AA/AIA) model in female Lewis rats; format: in vivo; conditions: for Paw volume of AA rats model (in words): FIG. 13; for Paw volume (Mean): 11 (3 mg/kg) BID positive control, oral from day 13
Procedure: Adjuvant-Induced Arthritis AA Model:
The combination of Compounds 3 and 14 was evaluated in adjuvant-induced arthritis (AA) model in female Lewis rats. All rats except the normal group were immunized with complete Freund's adjuvant (CFA) subcutaneously at the left hind paw to induce arthritis at day 0. At 6 days post immunization, some rats started to display clinical symptoms of arthritis, e.g. erythema and swelling. […] The treatments were given orally for 3 consecutive weeks. The body weight, paw volume and clinical score were monitored every other day after day 13 throughout the course of the study. At the terminal point, right hind paws were collected for histopathology analysis with H.E. staining.

[2] = Collagen-induced arthritis (CIA) model in male DBA/1 mice; format: in vivo; parameters: scale not given here; conditions: CIA study, 14 alone, 0.15 mg/kg QD, Mean ± SEM
TMD-8 tumor cells = assay: Inhibition of tumor growth in vivo, TMD-8 lymphoma xenograft SCID mouse model; conditions: TMD-8 mice model, oral
Procedure: (§1) Inhibition Study of Tumor Growth In Vivo:
(§2) SCID mice or nude mice (weighing about 18 g at the beginning of the experiment) were randomly divided into groups by the software in order to achieve close average weights between groups and control the bias within the allowable range. The mice were injected BTK cell lines (TMD-8, WSU-DLCL2 and DoHH-2) for tumor formation. Inhibitors were administered orally once or twice a day, a total of 14 days, 21 days or 28 days. Body weights and tumor volume were recorded.
(§3) Xenograft Tumor Models Inoculated with TMD-8, or DoHH2, or WSU-DLCL2 Tumor Cell Lines:
TMD-8 is a sensitive human diffuse large B-cell lymphoma cell line, and DoHH2 is a more difficult to treat human follicular lymphoma cell line, while WSU-DLCL2 is a multi-drug resistant (MDR) human non-Hodgkin's lymphoma cell line. Drug combination therapies provide better efficacies in all three tumor models than single targeted agent alone.
The TMD-8, DoHH2, WSU-DLCL2 tumor cells were maintained in vitro as a suspension culture in RPMI-1640 medium supplemented with 10% heat inactivated fetal calf serum at 37° C. in an atmosphere of 5% CO2 in air. The tumor cells were routinely subcultured twice weekly. The cells growing in an exponential growth phase were harvested and counted for tumor inoculation. Each mouse was inoculated subcutaneously at the right flank with the tumor cells (10×10^6) in 0.2 ml of PBS with Matrigel (1:1) for tumor development. The treatments were started after the average tumor size reached approximately 100-200 mm^3. Each group consisted of 6-10 tumor-bearing mice. The testing article (vehicle, compound or combination) was orally administrated to the mice according to the predetermined doses for 14-days or 21-days. Animal body weight and tumor volume were measured every 2- or 3-days throughout the treatment.

[3] = Collagen-induced arthritis (CIA) model in male DBA/1 mice; format: in vivo; parameters: Clinical Score (Mean) / Pathological score: Inflammatory cell infiltration / Pathological score: Pannus growth / Pathological score: Cartilage injury / Pathological score: Bone resorption / Pathological score: Total: scale not given here; conditions: for Clinical score of CIA mice model (in words): FIG. 15; for Clinical Score (Mean): Dexamethasone 0.2 mg/kg
Procedure: Collagen-Induced Arthritis (CIA) Model:
The combination of Compounds 3 and 12 was evaluated in collagen induced arthritis (CIA) mouse model in Male DBA/1 mice. The animals were divided into 8 groups, including a normal, a vehicle, […] treatment groups: All animals (except the normal group) were immunized with 200 μg of bovine collagen (type II) on day 0 and day 21. Seven days (day 28) after boosting immunization, animals started to show symptoms of disease with an average clinical score around 1. […] The treatments were given orally for 2 consecutive weeks. Body weight and clinical score were monitored through the study (recorded three times a week started after second immunization). At the end of the study, animals were euthanized and both hind paws were collected for histopathology analysis.

TMD-8 cell line = assay: Inhibition assay of tumor cell activity (cell viability), TMD-8; format: cell-based, human; conditions: 48 hours incubation
Procedure: Inhibition Assay of Tumor Cell Activity:
Tumor cells (TMD-8, DoHH2 and WSU-DLCL2) were transferred and attached to 96-well plates. After one night, blank buffer and selected concentrations (0.01 nM-100 μM) of the test compound solution were added. After 48 hours incubation, CellTiter-Go was added to lyse the cells. Recording luminescent signal and calculate the percent inhibition of cell viability.

WSU-DLCL2 tumor cells [4] = conditions: oral gavage to mice, 480 mg/kg/day, Knutson et al. 2014, cited from earlier work
WSU-DLCL2 tumor cells [5] = assay: Inhibition of tumor growth in vivo, resistant WSU-DLCL2 xenograft SCID mouse model; parameters: species or system mice; conditions: FIG. 8
Procedure: as §1, §2, §3
TMD-8 is a sensitive human diffuse large B-cell lymphoma cell line, and DoHH2 is a more difficult to treat human follicular lymphoma cell line, while WSU-DLCL2 is a multi-drug resistant (MDR) human non-Hodgkin's lymphoma cell line.
The TMD-8, DoHH2, WSU-DLCL2 tumor cells were maintained in vitro as a suspension culture in RPMI-1640 medium supplemented with 10% heat inactivated fetal calf serum at 37° C. in an atmosphere of 5% CO2 in air. The tumor cells were routinely subcultured twice weekly. The cells growing in an exponential growth phase were harvested and counted for tumor inoculation. […] Animal body weight and tumor volume were measured every 2- or 3-days throughout the treatment.

[6] = CIA study, Left hind paw, Dexamethasone 0.2 mg/kg QD, Mean ± SEM
[7] = CIA study, Right hind paw, Dexamethasone 0.2 mg/kg QD, Mean ± SEM
[8] = AA study, 11, 3 mg/kg, Mean ± SEM

In the case of `CO[C@H]1C[C@@H]2CC[C@@H](C)[C@@](O)(O2)C(=O)C(=O)N2CCCC[C@H]2C(=O)O[C@H]([C@H](C)C[C@@H]2CC[C@@H](OCCO)[C@H](OC)C2)CC(=O)[C@H](C)/C=C(\C)[C@@H](O)[C@@H](OC)C(=O)[C@H](C)C[C@H](C)/C=C/C=C/C=C/1C` [Compound 14, Everolimus], the “Pathological score: Bone resorption” value ([1]; AA study, 14 alone, 0.5 mg/kg, Mean ± SEM) is reported as 3.5 ± 0.17, the “Paw volume of AA rats model (in words)” value [1] is reported as “treatment effects are absent” and the “Pathological score: Bone resorption” value ([2]; Left hind paw) is reported as 1.80 ± 0.61. For the same molecule, the “Pathological score: Bone resorption” value ([2]; Right hind paw) was 2.00 ± 0.67, the “Days of treatment to tumor disappearance / complete tumor regression” value (TMD-8 tumor cells) was 15 days and the “Tumor disappearance (in words)” value (TMD-8 tumor cells) was “complete disappearance of tumor grafts”. For the same molecule, the “Tumor rebound after treatment was stopped” value (TMD-8 tumor cells) was “tumor rebounded”, the “Tumor rebound after treatment was stopped” value (TMD-8 tumor cells; listed as Everolimus) was “quickly rebounded” and the “Clinical score of CIA mice model (in words)” value [3] was “treatment effects are absent”.
With `CN(Cc1cnc2nc(N)nc(N)c2n1)c1ccc(C(=O)N[C@@H](CCC(=O)O)C(=O)O)cc1` [Compound 18, Methotrexate] the “Inhibition of individual compound on TMD-8 cell line (Inh %) AVG” value (from here on “Inhibition … (Inh %) AVG”) (TMD-8 cell line; 0.01 uM) was −8.45%, the “Inhibition … (Inh %) AVG” value (TMD-8 cell line; 0.1 uM) was 32.04% and the “Inhibition … (Inh %) AVG” value (TMD-8 cell line; 1 uM) was 39.55%.
For `CCN(c1cc(-c2ccc(CN3CCOCC3)cc2)cc(C(=O)NCc2c(C)cc(C)[nH]c2=O)c1C)C1CCOCC1` [EPZ-6438], the “Tumor growth inhibition in WSU-DLCL tumor model (in words)” value (WSU-DLCL2 tumor cells [4]) is given as “achieved a similar effect” and the “Tumor growth inhibition in WSU-DLCL tumor model (in words)” value (WSU-DLCL2 tumor cells [4]; listed as EZ-6438) is given as “inhibited tumor growth”.
For `C[C@@H]1C[C@H]2[C@@H]3CCC4=CC(=O)C=C[C@]4(C)[C@@]3(F)[C@@H](O)C[C@]2(C)[C@@]1(O)C(=O)CO` [Dexamethasone], the “Pathological score: Total” value ([3]; CIA study, Dexamethasone 0.2 mg/kg QD, Mean ± SEM) was 0.00 ± 0.00, the “Pathological score: Bone resorption” value [3, 6] was 0.00 ± 0.00 and the “Pathological score: Cartilage injury” value [3, 6] was 0.00 ± 0.00. For the same molecule, the “Pathological score: Inflammatory cell infiltration” value [3, 6] was 0.00 ± 0.00, the “Pathological score: Pannus growth” value [3, 6] was 0.00 ± 0.00 and the “Pathological score: Bone resorption” value [3, 7] was 0.00 ± 0.00. The “Pathological score: Cartilage injury” value [3, 7] was 0.00 ± 0.00, the “Pathological score: Inflammatory cell infiltration” value [3, 7] was 0.00 ± 0.00 and the “Pathological score: Pannus growth” value [3, 7] was 0.00 ± 0.00. The “Clinical Score (Mean)” value ([3]; CIA study, day 21 after first immunization) was 0.00, the “Clinical Score (Mean)” value ([3]; CIA study, day 32) was 0.60*** and the “Clinical Score (Mean)” value ([3]; CIA study, day 39) was 0.40***. For the same molecule, the “Clinical Score (Mean)” value ([3]; CIA study, day 42) was 0.20***.
In the case of `C=CC(=O)N1CC[C@@H](n2nc(-c3ccc(Oc4c(F)c(F)cc(F)c4F)cc3F)c3c(N)ncnc32)C1` [Compound 3, 1-((R)-3-(4-amino-3-(2-fluoro-4-(2,3,5,6-tetrafluorophenoxy)phenyl)-1H-pyrazolo[3,4-d]pyrimidin-1-yl)pyrrolidin-1-yl)prop-2-en-1-one], the “Paw volume of AA rats model (in words)” value [1] is reported as “treatment effects are absent”, the “Efficacy in WSU-DLCL2 non-Hodgkin's lymphoma mice model (in words)” value (WSU-DLCL2 tumor cells [5]) is reported as “in line with the efficacy of Ibrutinib” and the “Clinical score of CIA mice model (in words)” value [3] is reported as “treatment effects are absent”.
With `C[C@@H]1CCN(C(=O)CC#N)C[C@@H]1N(C)c1ncnc2[nH]ccc12` [Compound 11, Tofactinib] the “Pathological score: Bone resorption” value [1, 8] was 0.5 ± 0.22, the “Pathological score: Cartilage injury” value [1, 8] was 0.2 ± 0.20 and the “Pathological score: Inflammatory cell infiltration” value [1, 8] was 1.9 ± 0.18. For the same molecule, the “Pathological score: Pannus growth” value [1, 8] was 0.4 ± 0.22, the “Pathological score: Total” value [1, 8] was 3.0 ± 0.73 and the “Paw volume (Mean)” value ([1]; Day 0) was 1.00 mL. The “Paw volume (Mean)” value ([1]; Day 17) was 1.54*** mL, the “Paw volume (Mean)” value ([1]; Day 26) was 1.37*** mL and the “Paw volume (Mean)” value ([1]; Day 28) was 1.33*** mL. The “Paw volume (Mean)” value ([1]; Day 31) was 1.23*** mL, the “Paw volume (Mean)” value ([1]; Day 33) was 1.23*** mL and the “Inhibition … (Inh %) AVG” value (TMD-8 cell line; 0.01 uM) was 6.02%. For the same molecule, the “Inhibition … (Inh %) AVG” value (TMD-8 cell line; 0.1 uM) was 1.31% and the “Inhibition … (Inh %) AVG” value (TMD-8 cell line; 1 uM) was 6.66%.
